From patent US20120035076A1, “IRAK KINASE FAMILY AS NOVEL TARGET AND BIOMARKER FOR ALZHEIMER” (Vereniging Voor Christelijk Hoger Onderwijs …, priority 2009, published 2012) come the findings set out here.

Assay [1] deals with IL-6 secretion by U373 astrocytoma cells. Kind of assay: IL-1β induced IL-6 secretion by U373 astrocytoma cells (ELISA). The class given is cell-based. Conditions: IL-1β 10 U/ml, 6 hours, inhibitor 1250, 2500 or 5000 nM. A general note: An ELISA detects its analyte on a solid surface through an enzyme-linked reagent.
The test system of assay [2] is IL-6 secretion by human primary astrocytes. Kind of assay: IL-1β induced IL-6 secretion by human primary astrocytes (ELISA). The note with it: IL-1β 10 U/ml, 6 hours, inhibitor 1250, 2500 or 5000 nM. Type of assay: cell-based. From the text: IL-1β has been implicated in both the initiation and propagation of neuroinflammatory changes seen in Alzheimer's disease patients. One of the main mechanisms of IL-1β is the induction of interleukin 6 (IL-6) secretion, which propagates the neuroinflammatory response in Alzheimer's disease patients. Using primary human adult astrocytes this inflammatory response as well as modulators (i.e. potential drugs for therapy) can be studied in vitro. […] In the presence of IL-1β (10 U/ml) these cells secrete IL-6 in the culture supernatant, which can be measured by ELISA. […] Cells were incubated with or without IL-1β (10 U/ml) for 6 hours in the presence of different concentration of IRAK1/4 inhibitor I (1250, 2500, or 5000 nM). IL-6 levels (pg/ml) in the culture supernatants were determined by ELISA. Shown are mean levels +/−S.D. of three replicate stimulations.

The mark [3] stands for this setting: FIG. 1, listed as IRAK1/4 inhibitor.

Each structure is given as a SMILES string.

Consider `O=C(Nc1nc2ccccc2n1CCN1CCOCC1)c1cccc([N+](=O)[O-])c1` [IRAK1/4 inhibitor I], for which the “IL-6 secretion in culture supernatant” value is “dose-dependently inhibits IL-6 secretion” in assay [1] (FIG. 1), “reduced” in assay [1] (setting [3]), “dose-dependently inhibits IL-6 secretion” in assay [2] (FIG. 1) and “reduced” in assay [2] (setting [3]).
